Laboratory results: patent US20260224547A1, “COMPOSITIONS COMPRISING ANATABINE AND USES THEREOF” (Philip Morris Products S.A., priority 2021, published 2026)

Test system: HEK-293, SH-SY5Y, primary human keratinocytes, THP-1 differentiated with PMA
Test: Transcriptomics (microarray) after anatabine treatment of 4 cell systems
Assay type: cell-based
Procedure: To investigate the signalling pathways triggered by anatabine, 4 cell systems (HEK-293, SH-SY5Y, primary human keratinocytes, THP-1 differentiated with PMA) were treated with 4 concentrations of anatabine (100, 200, 300, 400 μM) for 6 hours, after which transcriptomics measurements were performed.
HEK-293 is a human embryonic kidney cell line devoid of nicotinic receptors. It can be relatively easily transfected and therefore used as a tool to express various subtypes of nicotinic receptors or reporter genes such as NRF2-driven luciferase, which were also used in this study. HEK-293 were seeded in a cell culture medium consisting of EMEM, 10% FBS, 1% NEAA, 1% Sodium Pyruvate and 1% PenStrep. 60,000 cells were seeded per well of a 96-well plate.
SH-SY5Y is a human bone marrow neuroblastoma cell line that has been used by researchers to investigate the potential anti-inflammatory effect of anatabine. SH-SY5Y were seeded in a cell culture medium consisting of 50% EMEM and 50% Ham's F12 nutrient and including 10% FBS, 1% PenStrep and 1% L-glutamine. 15,000 cells were seeded per well of a 96-well plate.
Primary human keratinocytes have been included as a relevant cell system for skin. The batch of keratinocytes was selected in order to have healthy, non-smoker, 20-60 years old, Caucasian donors. The keratinocytes were seeded in a cell culture medium consisting of KGM-Gold Keratinocyte Growth Medium. 17,500 cells were seeded per well of a 96-well plate.
The human leukaemia-derived monocytic cell line THP-1, is the most widely used in vitro model for primary human macrophage investigations. THP-1 cells were seeded in a cell culture medium consisting of RPMI, 10% FBS and 1% PenStrep and in the presence of 40 ng/ml phorbol 12-myristate 13-acetate (PMA). 100,000 cells were seeded per well of a 96-well plate, having a total volume of […] per well. 48 hours later the medium was changed to the same culture medium but without PMA, and the culture was left to rest for 24 h before treatment.
All four cell systems were seeded in 96 well plates at a total volume of 190 μl per well to allow for a 20× compound stimulation with a volume of 10 μL. 24 hours after seeding—or in the case of THP-1, 24 h after changing to non-PMA medium—four cell systems were stimulated with anatabine (prepared at 20× the corresponding target concentration) to obtain a final molar concentration of 100, 200, 300, 400 μM anatabine.
In order to generate the transcriptomics data, the four cell systems were exposed to various concentrations of anatabine (100, 200, 300, 400 μM) for 6 hours. The transcriptome of the cells was analysed by a microarray-based analysis.
The cells were lysed using RLT BUFFER (Qiagen Hilden, Germany) for all cell types except the keratinocytes which were lysed with QIAZOL LYSIS REAGENT (Qiagen). RNA isolation was performed with RNEASY MICRO KIT (Qiagen). RNA quantification was assessed with a NANODROP 1000 (ThermoFisher Waltham, MA, USA) and quality of the total RNA was verified acquiring a profile with a 2100 BIOANALYZER (Agilent Technologies, Santa Clara, CA, USA), requiring an RIN number greater than 6.0. 50 ng of total RNA were processed as described in the TECAN/NUGEN OVATION RNA AMPLIFICATION SYSTEM V2 (Tecan Mannedorf, Switzerland). Human Genome U133 Plus 2.0 array were used for hybridization on a THERMOFISHER OVEN 645, washed on THERMOFISHER GENECHIP™ FLUIDICS STATIONS 450DX (protocol FS450-0004) and scanned on a THERMOFISHER GENECHIP™ SCANNER 3000 7G.
Quality control check of all chips was done with the BIOCONDUCTOR affyPLM R package version 1.64. Following quality control procedures, differential gene expression analysis was performed using the BIOCONDUCTOR LIMMA R package version 3.44.3. Pairwise comparisons at the gene level, called systems response profiles (SRP), were computed by comparing each concentration-treatment with its respective vehicle control. […]

## C1=CCC(c2cccnc2)NC1 (racemic) [anatabine, 1,2,3,6-Tetrahydro-2,3′-bipyridine]
ATF3 gene, KEAT, anatabine 100 μM
  Fold Change: 0.2106
ATF3 gene, KEAT, anatabine 200 μM
  Fold Change: 0.3169
ATF3 gene, KEAT, anatabine 300 μM
  Fold Change: 1.893
ATF3 gene, KEAT, anatabine 400 μM
  Fold Change: 1.185
ATF3 gene, SHSY5Y, anatabine 100 μM
  Fold Change: 0.04701
ATF3 gene, SHSY5Y, anatabine 200 μM
  Fold Change: 0.3038
ATF3 gene, SHSY5Y, anatabine 300 μM
  Fold Change: 0.6207
ATF3 gene, SHSY5Y, anatabine 400 μM
  Fold Change: 1.206
ATF3 gene, THP1, anatabine 100 μM
  Fold Change: −0.02648
EEF2K gene, THP1, anatabine 300 μM
  Fold Change: −0.3419
EEF2K gene, THP1, anatabine 400 μM
  Fold Change: −0.7245
EID3 gene, HEK293, anatabine 100 μM
  Fold Change: 0.1833
EID3 gene, HEK293, anatabine 200 μM
  Fold Change: 0.5345
EID3 gene, HEK293, anatabine 300 μM
  Fold Change: 0.9247
EID3 gene, HEK293, anatabine 400 μM
  Fold Change: 0.9528
EID3 gene, KEAT, anatabine 100 μM
  Fold Change: 1.694
EID3 gene, KEAT, anatabine 200 μM
  Fold Change: 1.995
EID3 gene, KEAT, anatabine 300 μM
  Fold Change: 3.641
EID3 gene, KEAT, anatabine 400 μM
  Fold Change: 3.12
EID3 gene, SHSY5Y, anatabine 100 μM
  Fold Change: 0.2913
EID3 gene, SHSY5Y, anatabine 200 μM
  Fold Change: 0.3156
EID3 gene, SHSY5Y, anatabine 300 μM
  Fold Change: 0.6868
EID3 gene, SHSY5Y, anatabine 400 μM
  Fold Change: 1.05
EID3 gene, THP1, anatabine 100 μM
  Fold Change: 0.1121
EID3 gene, THP1, anatabine 200 μM
  Fold Change: 0.4679
EID3 gene, THP1, anatabine 300 μM
  Fold Change: 0.5698
EID3 gene, THP1, anatabine 400 μM
  Fold Change: 1.615
FAM53C gene, HEK293, anatabine 100 μM
  Fold Change: 0.3792
FAM53C gene, HEK293, anatabine 200 μM
  Fold Change: 0.423
FAM53C gene, HEK293, anatabine 300 μM
  Fold Change: 0.6969
FAM53C gene, HEK293, anatabine 400 μM
  Fold Change: 0.7367
FAM53C gene, KEAT, anatabine 100 μM
  Fold Change: 0.1269
FAM53C gene, KEAT, anatabine 200 μM
  Fold Change: 0.2194
FAM53C gene, KEAT, anatabine 300 μM
  Fold Change: 1.067
FAM53C gene, KEAT, anatabine 400 μM
  Fold Change: 0.6853
FAM53C gene, SHSY5Y, anatabine 100 μM
  Fold Change: 0.1212
FAM53C gene, SHSY5Y, anatabine 200 μM
  Fold Change: 0.4283
FAM53C gene, SHSY5Y, anatabine 300 μM
  Fold Change: 0.5427
FAM53C gene, SHSY5Y, anatabine 400 μM
  Fold Change: 0.873
FAM53C gene, THP1, anatabine 100 μM
  Fold Change: 0.144
FAM53C gene, THP1, anatabine 200 μM
  Fold Change: 0.2515
FAM53C gene, THP1, anatabine 300 μM
  Fold Change: 0.6296
FAM53C gene, THP1, anatabine 400 μM
  Fold Change: 0.8729
FBXO30 gene, HEK293, anatabine 100 μM
  Fold Change: 0.001539
FBXO30 gene, HEK293, anatabine 200 μM
  Fold Change: 0.2872
FBXO30 gene, HEK293, anatabine 300 μM
  Fold Change: 0.3586
FBXO30 gene, HEK293, anatabine 400 μM
  Fold Change: 0.5949
FBXO30 gene, KEAT, anatabine 100 μM
  Fold Change: 0.619
FBXO30 gene, KEAT, anatabine 200 μM
  Fold Change: 0.8807
FBXO30 gene, KEAT, anatabine 300 μM
  Fold Change: 1.832
FBXO30 gene, KEAT, anatabine 400 μM
  Fold Change: 1.526
FBXO30 gene, SHSY5Y, anatabine 100 μM
  Fold Change: −0.5195
FBXO30 gene, SHSY5Y, anatabine 200 μM
  Fold Change: 0.3153
FBXO30 gene, SHSY5Y, anatabine 300 μM
  Fold Change: 0.5475
FBXO30 gene, SHSY5Y, anatabine 400 μM
  Fold Change: 0.9269
FBXO30 gene, THP1, anatabine 100 μM
  Fold Change: 0.002856
FBXO30 gene, THP1, anatabine 200 μM
  Fold Change: 0.427
FBXO30 gene, THP1, anatabine 300 μM
  Fold Change: 0.6595
FBXO30 gene, THP1, anatabine 400 μM
  Fold Change: 1.224
G0S2 gene, HEK293, anatabine 100 μM
  Fold Change: −0.159
G0S2 gene, HEK293, anatabine 200 μM
  Fold Change: −0.1114
G0S2 gene, HEK293, anatabine 300 μM
  Fold Change: −0.6854
G0S2 gene, HEK293, anatabine 400 μM
  Fold Change: −0.7292
G0S2 gene, KEAT, anatabine 100 μM
  Fold Change: −0.3516
G0S2 gene, KEAT, anatabine 200 μM
  Fold Change: −0.5508
G0S2 gene, KEAT, anatabine 300 μM
  Fold Change: −1.361
G0S2 gene, KEAT, anatabine 400 μM
  Fold Change: −1.016
G0S2 gene, SHSY5Y, anatabine 100 μM
  Fold Change: −0.0648
